# System: 292921-168-R-J2-PDC complex spheroid growth
# Test: Anticancer human tumor 292921-168-R-J2-PDC patient-derived pancreatic carcinoma cell line growth inhibition [AhR]
# Settings: second compound 0.1 µM; first compound 0.316 µM; active compounds read low
# Method in brief: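 Spheroids combined tumor cells with HUVEC endothelial cells and human MSCs as stroma. AhR antagonists were paired with standard or investigational drugs, each dosed in half-log steps down from near clinical Cmax, or from 10 microM where Cmax was unknown.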
# 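Note: spheroids exposed to compounds for seven days after three days of growth.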
row,Compound,"viability, T/C [%]"
1,Nc1ncn(C2CC(O)C(CO)O2)c(=O)n1 (stereo not drawn) + Cc1ccccc1N=Nc1ccc(NC(=O)c2ccnn2C)c(C)c1,73.5

# Same assay, conditions: second compound 0.1 µM; first compound 1 µM; active compounds read low
row,Compound,"viability, T/C [%]"
1,CC(C)c1c(-c2ccccc2)nc2c(C#N)c[nH]n2c1=O + CC(CO)NC(=O)c1cc(-c2ccc(Cl)cc2)nn(-c2cnn(C)c2)c1=O,105
2,COc1cc(C2c3cc4c(cc3C(OC3OC5COC(C)OC5C(O)C3O)C3COC(=O)C23)OCO4)cc(OC)c1O (stereo not drawn) + Cc1ccccc1N=Nc1ccc(NC(=O)c2ccnn2C)c(C)c1,30.8
3,COc1cccc2c1C(=O)c1c(O)c3c(c(O)c1C2=O)CC(O)(C(=O)CO)CC3OC1CC(N)C(O)C(C)O1 (stereo not drawn) + Cc1ccccc1N=Nc1ccc(NC(=O)c2ccnn2C)c(C)c1,0.17
4,Nc1ccn(C2OC(CO)C(O)C2(F)F)c(=O)n1 (stereo not drawn) + Cc1ccccc1N=Nc1ccc(NC(=O)c2ccnn2C)c(C)c1,7.79
5,Nc1ncn(C2CC(O)C(CO)O2)c(=O)n1 (stereo not drawn) + Cc1ccccc1N=Nc1ccc(NC(=O)c2ccnn2C)c(C)c1,72.9

# Same assay, conditions: second compound 0.1 µM; first compound 3.16 µM; active compounds read low
row,Compound,"viability, T/C [%]"
1,CC(C)c1c(-c2ccccc2)nc2c(C#N)c[nH]n2c1=O + CC(CO)NC(=O)c1cc(-c2ccc(Cl)cc2)nn(-c2cnn(C)c2)c1=O,109
2,COc1cc(C2c3cc4c(cc3C(OC3OC5COC(C)OC5C(O)C3O)C3COC(=O)C23)OCO4)cc(OC)c1O (stereo not drawn) + Cc1ccccc1N=Nc1ccc(NC(=O)c2ccnn2C)c(C)c1,18
3,COc1cccc2c1C(=O)c1c(O)c3c(c(O)c1C2=O)CC(O)(C(=O)CO)CC3OC1CC(N)C(O)C(C)O1 (stereo not drawn) + Cc1ccccc1N=Nc1ccc(NC(=O)c2ccnn2C)c(C)c1,0.69
4,Nc1ccn(C2OC(CO)C(O)C2(F)F)c(=O)n1 (stereo not drawn) + Cc1ccccc1N=Nc1ccc(NC(=O)c2ccnn2C)c(C)c1,8.32

# Same assay, conditions: second compound 0.1 µM; first compound 10 µM; active compounds read low
row,Compound,"viability, T/C [%]"
1,CC(C)c1c(-c2ccccc2)nc2c(C#N)c[nH]n2c1=O + CC(CO)NC(=O)c1cc(-c2ccc(Cl)cc2)nn(-c2cnn(C)c2)c1=O,101
2,COc1cc(C2c3cc4c(cc3C(OC3OC5COC(C)OC5C(O)C3O)C3COC(=O)C23)OCO4)cc(OC)c1O (stereo not drawn) + Cc1ccccc1N=Nc1ccc(NC(=O)c2ccnn2C)c(C)c1,10.8
3,COc1cccc2c1C(=O)c1c(O)c3c(c(O)c1C2=O)CC(O)(C(=O)CO)CC3OC1CC(N)C(O)C(C)O1 (stereo not drawn) + Cc1ccccc1N=Nc1ccc(NC(=O)c2ccnn2C)c(C)c1,1.91
4,Nc1ccn(C2OC(CO)C(O)C2(F)F)c(=O)n1 (stereo not drawn) + Cc1ccccc1N=Nc1ccc(NC(=O)c2ccnn2C)c(C)c1,6.76

# Same assay, conditions: second compound 0.316 µM; first compound 0.000316 µM; active compounds read low
row,Compound,"viability, T/C [%]"
1,CC[C@@]1(O)C(=O)OCc2c1cc1n(c2=O)Cc2cc3c(CN(C)C)c(O)ccc3nc2-1 + Cc1ccccc1N=Nc1ccc(NC(=O)c2ccnn2C)c(C)c1,82.9

# Same assay, conditions: second compound 0.316 µM; first compound 0.001 µM; active compounds read low
row,Compound,"viability, T/C [%]"
1,CC[C@@]1(O)C(=O)OCc2c1cc1n(c2=O)Cc2cc3c(CN(C)C)c(O)ccc3nc2-1 + Cc1ccccc1N=Nc1ccc(NC(=O)c2ccnn2C)c(C)c1,92.5

# Same assay, conditions: second compound 0.316 µM; first compound 0.00316 µM; active compounds read low
row,Compound,"viability, T/C [%]"
1,CC[C@@]1(O)C(=O)OCc2c1cc1n(c2=O)Cc2cc3c(CN(C)C)c(O)ccc3nc2-1 + Cc1ccccc1N=Nc1ccc(NC(=O)c2ccnn2C)c(C)c1,81.2
2,Nc1ncn(C2CC(O)C(CO)O2)c(=O)n1 (stereo not drawn) + Cc1ccccc1N=Nc1ccc(NC(=O)c2ccnn2C)c(C)c1,96.9

# Same assay, conditions: second compound 0.316 µM; first compound 0.01 µM; active compounds read low
row,Compound,"viability, T/C [%]"
1,CC[C@@]1(O)C(=O)OCc2c1cc1n(c2=O)Cc2cc3c(CN(C)C)c(O)ccc3nc2-1 + Cc1ccccc1N=Nc1ccc(NC(=O)c2ccnn2C)c(C)c1,66.2
2,Nc1ncn(C2CC(O)C(CO)O2)c(=O)n1 (stereo not drawn) + Cc1ccccc1N=Nc1ccc(NC(=O)c2ccnn2C)c(C)c1,86.9

# Same assay, conditions: second compound 0.316 µM; first compound 0.0316 µM; active compounds read low
row,Compound,"viability, T/C [%]"
1,CC(C)c1c(-c2ccccc2)nc2c(C#N)c[nH]n2c1=O + CC(CO)NC(=O)c1cc(-c2ccc(Cl)cc2)nn(-c2cnn(C)c2)c1=O,103
2,CC[C@@]1(O)C(=O)OCc2c1cc1n(c2=O)Cc2cc3c(CN(C)C)c(O)ccc3nc2-1 + Cc1ccccc1N=Nc1ccc(NC(=O)c2ccnn2C)c(C)c1,36.2
3,COc1cc(C2c3cc4c(cc3C(OC3OC5COC(C)OC5C(O)C3O)C3COC(=O)C23)OCO4)cc(OC)c1O (stereo not drawn) + Cc1ccccc1N=Nc1ccc(NC(=O)c2ccnn2C)c(C)c1,86.3
4,COc1cccc2c1C(=O)c1c(O)c3c(c(O)c1C2=O)CC(O)(C(=O)CO)CC3OC1CC(N)C(O)C(C)O1 (stereo not drawn) + Cc1ccccc1N=Nc1ccc(NC(=O)c2ccnn2C)c(C)c1,20.1
5,Nc1ccn(C2OC(CO)C(O)C2(F)F)c(=O)n1 (stereo not drawn) + Cc1ccccc1N=Nc1ccc(NC(=O)c2ccnn2C)c(C)c1,8.99
6,Nc1ncn(C2CC(O)C(CO)O2)c(=O)n1 (stereo not drawn) + Cc1ccccc1N=Nc1ccc(NC(=O)c2ccnn2C)c(C)c1,87

# Same assay, conditions: second compound 0.316 µM; first compound 0.1 µM; active compounds read low
row,Compound,"viability, T/C [%]"
1,CC(C)c1c(-c2ccccc2)nc2c(C#N)c[nH]n2c1=O + CC(CO)NC(=O)c1cc(-c2ccc(Cl)cc2)nn(-c2cnn(C)c2)c1=O,102
2,CC[C@@]1(O)C(=O)OCc2c1cc1n(c2=O)Cc2cc3c(CN(C)C)c(O)ccc3nc2-1 + Cc1ccccc1N=Nc1ccc(NC(=O)c2ccnn2C)c(C)c1,18.6
3,COc1cc(C2c3cc4c(cc3C(OC3OC5COC(C)OC5C(O)C3O)C3COC(=O)C23)OCO4)cc(OC)c1O (stereo not drawn) + Cc1ccccc1N=Nc1ccc(NC(=O)c2ccnn2C)c(C)c1,71
4,COc1cccc2c1C(=O)c1c(O)c3c(c(O)c1C2=O)CC(O)(C(=O)CO)CC3OC1CC(N)C(O)C(C)O1 (stereo not drawn) + Cc1ccccc1N=Nc1ccc(NC(=O)c2ccnn2C)c(C)c1,15.5
5,Nc1ccn(C2OC(CO)C(O)C2(F)F)c(=O)n1 (stereo not drawn) + Cc1ccccc1N=Nc1ccc(NC(=O)c2ccnn2C)c(C)c1,7.65
6,Nc1ncn(C2CC(O)C(CO)O2)c(=O)n1 (stereo not drawn) + Cc1ccccc1N=Nc1ccc(NC(=O)c2ccnn2C)c(C)c1,76.5

# Same assay, conditions: second compound 0.316 µM; first compound 0.316 µM; active compounds read low
row,Compound,"viability, T/C [%]"
1,CC(C)c1c(-c2ccccc2)nc2c(C#N)c[nH]n2c1=O + CC(CO)NC(=O)c1cc(-c2ccc(Cl)cc2)nn(-c2cnn(C)c2)c1=O,99.6
2,COc1cc(C2c3cc4c(cc3C(OC3OC5COC(C)OC5C(O)C3O)C3COC(=O)C23)OCO4)cc(OC)c1O (stereo not drawn) + Cc1ccccc1N=Nc1ccc(NC(=O)c2ccnn2C)c(C)c1,58.7
3,COc1cccc2c1C(=O)c1c(O)c3c(c(O)c1C2=O)CC(O)(C(=O)CO)CC3OC1CC(N)C(O)C(C)O1 (stereo not drawn) + Cc1ccccc1N=Nc1ccc(NC(=O)c2ccnn2C)c(C)c1,4.33
4,Nc1ccn(C2OC(CO)C(O)C2(F)F)c(=O)n1 (stereo not drawn) + Cc1ccccc1N=Nc1ccc(NC(=O)c2ccnn2C)c(C)c1,8.65
5,Nc1ncn(C2CC(O)C(CO)O2)c(=O)n1 (stereo not drawn) + Cc1ccccc1N=Nc1ccc(NC(=O)c2ccnn2C)c(C)c1,76

# Same assay, conditions: second compound 0.316 µM; first compound 1 µM; active compounds read low
row,Compound,"viability, T/C [%]"
1,CC(C)c1c(-c2ccccc2)nc2c(C#N)c[nH]n2c1=O + CC(CO)NC(=O)c1cc(-c2ccc(Cl)cc2)nn(-c2cnn(C)c2)c1=O,96
2,COc1cc(C2c3cc4c(cc3C(OC3OC5COC(C)OC5C(O)C3O)C3COC(=O)C23)OCO4)cc(OC)c1O (stereo not drawn) + Cc1ccccc1N=Nc1ccc(NC(=O)c2ccnn2C)c(C)c1,29.9
3,COc1cccc2c1C(=O)c1c(O)c3c(c(O)c1C2=O)CC(O)(C(=O)CO)CC3OC1CC(N)C(O)C(C)O1 (stereo not drawn) + Cc1ccccc1N=Nc1ccc(NC(=O)c2ccnn2C)c(C)c1,0.12
4,Nc1ccn(C2OC(CO)C(O)C2(F)F)c(=O)n1 (stereo not drawn) + Cc1ccccc1N=Nc1ccc(NC(=O)c2ccnn2C)c(C)c1,8.07
5,Nc1ncn(C2CC(O)C(CO)O2)c(=O)n1 (stereo not drawn) + Cc1ccccc1N=Nc1ccc(NC(=O)c2ccnn2C)c(C)c1,78.6

# Same assay, conditions: second compound 0.316 µM; first compound 3.16 µM; active compounds read low
row,Compound,"viability, T/C [%]"
1,CC(C)c1c(-c2ccccc2)nc2c(C#N)c[nH]n2c1=O + CC(CO)NC(=O)c1cc(-c2ccc(Cl)cc2)nn(-c2cnn(C)c2)c1=O,101
2,COc1cc(C2c3cc4c(cc3C(OC3OC5COC(C)OC5C(O)C3O)C3COC(=O)C23)OCO4)cc(OC)c1O (stereo not drawn) + Cc1ccccc1N=Nc1ccc(NC(=O)c2ccnn2C)c(C)c1,14.8
3,COc1cccc2c1C(=O)c1c(O)c3c(c(O)c1C2=O)CC(O)(C(=O)CO)CC3OC1CC(N)C(O)C(C)O1 (stereo not drawn) + Cc1ccccc1N=Nc1ccc(NC(=O)c2ccnn2C)c(C)c1,0.59
4,Nc1ccn(C2OC(CO)C(O)C2(F)F)c(=O)n1 (stereo not drawn) + Cc1ccccc1N=Nc1ccc(NC(=O)c2ccnn2C)c(C)c1,8.01

# Same assay, conditions: second compound 0.316 µM; first compound 10 µM; active compounds read low
row,Compound,"viability, T/C [%]"
1,CC(C)c1c(-c2ccccc2)nc2c(C#N)c[nH]n2c1=O + CC(CO)NC(=O)c1cc(-c2ccc(Cl)cc2)nn(-c2cnn(C)c2)c1=O,89.5
2,COc1cc(C2c3cc4c(cc3C(OC3OC5COC(C)OC5C(O)C3O)C3COC(=O)C23)OCO4)cc(OC)c1O (stereo not drawn) + Cc1ccccc1N=Nc1ccc(NC(=O)c2ccnn2C)c(C)c1,11.7
3,COc1cccc2c1C(=O)c1c(O)c3c(c(O)c1C2=O)CC(O)(C(=O)CO)CC3OC1CC(N)C(O)C(C)O1 (stereo not drawn) + Cc1ccccc1N=Nc1ccc(NC(=O)c2ccnn2C)c(C)c1,2.35
4,Nc1ccn(C2OC(CO)C(O)C2(F)F)c(=O)n1 (stereo not drawn) + Cc1ccccc1N=Nc1ccc(NC(=O)c2ccnn2C)c(C)c1,7.23

# Same assay, conditions: second compound 1 µM; first compound 0.000316 µM; active compounds read low
row,Compound,"viability, T/C [%]"
1,CC[C@@]1(O)C(=O)OCc2c1cc1n(c2=O)Cc2cc3c(CN(C)C)c(O)ccc3nc2-1 + Cc1ccccc1N=Nc1ccc(NC(=O)c2ccnn2C)c(C)c1,86.6

# Same assay, conditions: second compound 1 µM; first compound 0.001 µM; active compounds read low
row,Compound,"viability, T/C [%]"
1,CC[C@@]1(O)C(=O)OCc2c1cc1n(c2=O)Cc2cc3c(CN(C)C)c(O)ccc3nc2-1 + Cc1ccccc1N=Nc1ccc(NC(=O)c2ccnn2C)c(C)c1,88

# Same assay, conditions: second compound 1 µM; first compound 0.00316 µM; active compounds read low
row,Compound,"viability, T/C [%]"
1,CC[C@@]1(O)C(=O)OCc2c1cc1n(c2=O)Cc2cc3c(CN(C)C)c(O)ccc3nc2-1 + Cc1ccccc1N=Nc1ccc(NC(=O)c2ccnn2C)c(C)c1,76.9

# From PubChem BioAssay AID1918994 (Molecular Pharmacology Branch, DTP, NCI, 2023)
